Source: US20250129095A1, “ANNULATED 2-AMINO-3-CYANO THIOPHENES AND DERIVATIVES FOR THE TREATMENT OF CANCER” (Boehringer Ingelheim Int'l GmbH Corp., priority 2021, published 2025)
Converted amounts (≈) assume the structure as drawn. Read-outs that look alike come from different tables or passages of the source.

Tests used:
[1] = Solubility measurement (DMSO solution precipitation method); type: physicochemical; conditions: aqueous buffer, kinetic from dmso stock
Method: The DMSO solution is diluted with an aqueous medium (McIlvaine buffer with pH=4.5 or 6.8) to a final concentration of 250 μM. After 24 h of shaking at ambient temperature a potentially formed precipitate is removed by filtration. The concentration of the test compound in the filtrate is determined by LC-UV methods by calibrating the signal to the signal of a reference solution with complete dissolution of the test compound in acetonitrile/water (1:1) with known concentration.

NCI-H358 cells = assay: NCI-H358 CTG proliferation assay (120 h) (NSCLC, G12C); type: cell-based; conditions: Homo sapiens
Method: Additional Proliferation Assays with Mutant Cancer Cell Lines • NCI-H358 CTG proliferation assay (120 h) (NSCLC, G12C)
NCI-H358 cells (ATCC No. CRL-5807) are dispensed into black 384-well plates, flat and clear bottom (Greiner, PNr. 781091) at a density of 200 cells per well in 60 μl RPMI-1640 ATCC-Formulation (Gibco #A10491)+10% FCS (fetal calf serum). […] For the TO time point measurement, untreated cells are analyzed at the time of compound addition. Plates are incubated for 120 h, and cell viability is measured using CellTiter-Glo luminescent cell viability reagent (Promega product code G7570). Viability (stated as percent of control) is defined as relative luminescence units RLU of each well divided by the RLU of cells in DMSO controls.

KRAS G12C Ba/F3 = KRAS G12C Ba/F3 (Homo sapiens, UniProt P01116, G12C, cells depend on it); assay: Ba/F3 proliferation assay, KRAS G12C; type: cell-based; conditions: 72 h, AlamarBlue, read-out: KRAS G12C Ba/F3 IC50
Sequence of KRAS G12C Ba/F3 (P01116 whole entry G12C, canonical isoform): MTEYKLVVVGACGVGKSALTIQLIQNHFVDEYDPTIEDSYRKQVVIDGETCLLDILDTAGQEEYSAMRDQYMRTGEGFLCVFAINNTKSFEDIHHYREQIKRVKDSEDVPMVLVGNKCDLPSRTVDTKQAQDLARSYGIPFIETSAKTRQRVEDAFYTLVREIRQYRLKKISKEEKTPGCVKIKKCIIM
Method: (§1) Plasmids containing KRASG12 mutants(i.e. G12D, G12C, G12V) are obtained from GeneScript. To generate KRASG12-dependent Ba/F3 models, Ba/F3 cells are transduced with retroviruses containing vectors that harbor KRASG12 isoforms. Platinum-E cells (Cell Biolabs) are used for retrovirus packaging. Retrovirus is added to Ba/F3 cells. To ensure infection, 4 μg/mL polybrene is added and cells are spinfected. […] Cells with an infection efficiency of 10% to 20% are further cultivated and puromycin selection with 1 μg/mL is initiated. As a control, parental Ba/F3 cells are used to show selection status. Selection is considered successful when parental Ba/F3 cells cultures died. To evaluate the transforming potential of KRASG12 mutations, the growth medium is no longer supplemented with IL-3. Ba/F3 cells harboring the empty vector are used as a control. Approximately ten days before conducting the experiments, puromycin is left out.
(§2) Compounds are added using an Access Labcyte Workstation with a Labcyte Echo 550 or 555 accoustic dispenser. All treatments are performed in technical duplicates. […] AlamarBlue™ (ThermoFisher), a viability stain, is added and fluorescence measured in the PerkinElmer Envision HTS Multilabel Reader. The raw data are imported into and analyzed with the Boehringer Ingelheim proprietary software MegaLab (curve fitting based on the program PRISM, GraphPad Inc.).

SK-CO-1 cells = assay: SK-CO-1 CTG proliferation assay (120 h) (CRC, G12V); type: cell-based; conditions: Homo sapiens
Method: SK-CO-1 cells (ATCC HTB-39) are dispensed into 384-well plates, flat and clear bottom (Greiner, PNr. 781091) at a density of 500 cells per well in 60 μL EMEM (Sigma M5650)+10% Fetal Calf Serum (HyClone, PNr.: SH30084.03) and incubated at 37° C. in a CO2 incubator overnight. The next day, compounds (10 mM stock in DMSO) are added with the ECHO acoustic liquid handler system (Beckman Coulter), including DMSO controls. Plates are incubated for 120 h, and cell viability is measured using CellTiter-Glo luminescent cell viability reagent (Promega product code G7570). Viability (stated as percent of control) is defined as relative luminescence units RLU of each well divided by the RLU of cells in DMSO controls.

KRAS G12V Ba/F3 = KRAS G12V Ba/F3 (Homo sapiens, UniProt P01116, G12V, cells depend on it); assay: Ba/F3 proliferation assay, KRAS G12V; type: cell-based; conditions: 72 h, AlamarBlue, read-out: KRAS G12V Ba/F3 IC50
Sequence of KRAS G12V Ba/F3 (P01116 whole entry G12V): as the sequence (P01116 whole entry G12C, canonical isoform) above, with C12V counted along it
Method: as §1, §2

[2] = McIlvaine buffer pH 4.5, 24 h, read-out: Solubility [μg/ml] pH 4.5
[3] = McIlvaine buffer pH 6.8, 24 h, read-out: Solubility [μg/ml] pH 6.8

C[C@H](Oc1cc(O[C@@H]2CNC2(C)C)nc(-c2noc3c2CCC[C@@]32CCCc3sc(N)c(C#N)c32)n1)[C@@H]1C[C@@H](F)CN1C [II-31]
solubility at 24 h [1, 2]: > 157 µg/mL | solubility at 24 h [1, 3]: > 143 µg/mL | IC50 (NCI-H358 cells): 119 nM | GI50 (KRAS G12C Ba/F3): 203 nM | IC50 (SK-CO-1 cells): 394 nM | GI50 (KRAS G12V Ba/F3): 230 nM

C[C@H](Oc1cc(O[C@@H]2CNC[C@@H]2F)nc(-c2noc3c2CCC[C@@]32CCCc3sc(N)c(C#N)c32)n1)[C@@H]1CCCN1C [II-29]
IC50 (NCI-H358 cells): 36 nM | GI50 (KRAS G12C Ba/F3): 79 nM | IC50 (SK-CO-1 cells): 139 nM | GI50 (KRAS G12V Ba/F3): 65 nM

C[C@H](Oc1cc(N[C@H]2CCOC2)nc(-c2onc3c2CCC[C@@]32CCCc3sc(N)c(C#N)c32)n1)[C@@H]1CCCN1C [Example I-4]
solubility at 24 h [1, 2]: > 135 µg/mL | solubility at 24 h [1, 3]: 107 µg/mL (≈ 186 µM) | IC50 (NCI-H358 cells): 2280 nM | GI50 (KRAS G12C Ba/F3): 83 nM | IC50 (SK-CO-1 cells): 762 nM | GI50 (KRAS G12V Ba/F3): 46 nM

C[C@H](Oc1cc(O[C@@H]2CNC2(C)C)nc(-c2noc3c2CCC[C@@]32CCCc3sc(N)c(C#N)c32)n1)[C@@H]1CCCN1C [II-9]
IC50 (NCI-H358 cells): 69 nM | GI50 (KRAS G12C Ba/F3): 133 nM | IC50 (SK-CO-1 cells): 171 nM | GI50 (KRAS G12V Ba/F3): 161 nM

C[C@H](Oc1cc(N(C)CCN(C)C)nc(-c2noc3c2CCC[C@@]32CCCc3sc(N)c(C#N)c32)n1)[C@@H]1CCCN1C [II-20]
solubility at 24 h [1, 2]: > 144 µg/mL | solubility at 24 h [1, 3]: > 142 µg/mL | GI50 (KRAS G12C Ba/F3): 376 nM | IC50 (SK-CO-1 cells): 900 nM | GI50 (KRAS G12V Ba/F3): 303 nM

C[C@H](Oc1cc(Nc2ncco2)nc(-c2noc3c2CCC[C@@]32CCCc3sc(N)c(C#N)c32)n1)[C@@H]1CCCN1C [II-13]
solubility at 24 h [1, 2]: > 157 µg/mL | solubility at 24 h [1, 3]: 44 µg/mL (≈ 76.8 µM) | IC50 (NCI-H358 cells): 146 nM | GI50 (KRAS G12C Ba/F3): 17 nM | IC50 (SK-CO-1 cells): 69 nM | GI50 (KRAS G12V Ba/F3): 10 nM

C[C@H](Oc1cc(Nc2ccncn2)nc(-c2noc3c2CCC[C@@]32CCCc3sc(N)c(C#N)c32)n1)[C@@H]1CCCN1C [II-15]
IC50 (NCI-H358 cells): 123 nM | GI50 (KRAS G12C Ba/F3): 29 nM | IC50 (SK-CO-1 cells): 91 nM | GI50 (KRAS G12V Ba/F3): 12 nM

COc1c(OCC2(N(C)C)COC2)nc(-c2noc3c2CCC[C@@]32CCCc3sc(N)c(C#N)c32)nc1O[C@@H](C)[C@@H]1CCCN1C [II-25]
solubility at 24 h [1, 2]: > 163 µg/mL | solubility at 24 h [1, 3]: > 152 µg/mL | GI50 (KRAS G12C Ba/F3): 85 nM | IC50 (SK-CO-1 cells): 326 nM | GI50 (KRAS G12V Ba/F3): 137 nM

COC[C@H](C)Nc1cc(O[C@@H](C)[C@@H]2CCCN2C)nc(-c2onc3c2CCC[C@@]32CCCc3sc(N)c(C#N)c32)n1 [Example I-5]
solubility at 24 h [1, 2]: 111 µg/mL (≈ 192 µM) | solubility at 24 h [1, 3]: 109 µg/mL (≈ 189 µM) | GI50 (KRAS G12C Ba/F3): 71 nM | GI50 (KRAS G12V Ba/F3): 67 nM

C[C@H](Oc1cc(Oc2cncnc2)nc(-c2onc3c2CCC[C@@]32CCCc3sc(N)c(C#N)c32)n1)[C@@H]1CCCN1C [Example I-3]
solubility at 24 h [1, 2]: > 128 µg/mL | solubility at 24 h [1, 3]: > 121 µg/mL | GI50 (KRAS G12C Ba/F3): 4 nM | IC50 (SK-CO-1 cells): 29 nM | GI50 (KRAS G12V Ba/F3): 2 nM

C[C@H](Oc1cc(Nc2cnccn2)nc(-c2noc3c2CCC[C@@]32CCCc3sc(N)c(C#N)c32)n1)[C@@H]1CCCN1C [II-14]
solubility at 24 h [1, 2]: 67 µg/mL (≈ 115 µM) | solubility at 24 h [1, 3]: 11 µg/mL (≈ 18.8 µM) | IC50 (NCI-H358 cells): 558 nM | GI50 (KRAS G12C Ba/F3): 15 nM | IC50 (SK-CO-1 cells): 115 nM | GI50 (KRAS G12V Ba/F3): 7 nM

C[C@H](Oc1cc(N(C)C)nc(-c2noc3c2CCC[C@@]32CCCc3sc(N)c(C#N)c32)n1)[C@@H]1CCCN1C [II-10]
solubility at 24 h [1, 2]: > 107 µg/mL | solubility at 24 h [1, 3]: 95 µg/mL (≈ 178 µM) | GI50 (KRAS G12C Ba/F3): 61 nM | IC50 (SK-CO-1 cells): 1200 nM | GI50 (KRAS G12V Ba/F3): 43 nM

CO[C@@H]1C[C@@H]([C@H](C)Oc2cc(O[C@@H]3CNC3(C)C)nc(-c3noc4c3CCC[C@@]43CCCc4sc(N)c(C#N)c43)n2)N(C)C1 [II-30]
solubility at 24 h [1, 2]: > 171 µg/mL | solubility at 24 h [1, 3]: > 165 µg/mL | IC50 (NCI-H358 cells): 85 nM | GI50 (KRAS G12C Ba/F3): 219 nM | IC50 (SK-CO-1 cells): 260 nM | GI50 (KRAS G12V Ba/F3): 297 nM
